From US9801901B2, “Alginate oligomers for use in overcoming multidrug resistance in bacteria” (priority 2009, dated 2017)
≈ marks a conversion by molar mass, not a printed value. Where two headings read alike, the source gives them in different places. Marks after values point to notes of the source that are not given here.

What was measured:
[1] = system: Pseudomonas aeruginosa (R22, PSA, V1); assay: MIC-assay, Mueller-Hinton broth with G-block alginate, 384-well, OD600
[2] = system: Burkholderia cepacia (1322, V23); assay: as above
[3] = system: Pseudomonas aeruginosa CFA 24-1, clinical mucoid strain (R80); assay: MIC assay, CAMHB with alginate oligomer, no visible growth; type: cell-based; settings: Pseudomonas aeruginosa, Table 1, R80, read-out: MIC
[4] = system: V22 6056 Acinetobacter; assay: as above; type: cell-based, Acinetobacter lwoffii; settings: Table 5, V22 MDR Acin. lwoff
[5] = system: V9 (Egypt) Acinetobacter baumannii; assay: as above; type: cell-based; settings: Table 5, V9 MDR Acin. baum
[6] = system: Pseudomonas aeruginosa ATCC 39324, mucoid type strain (R79); assay: as above; type: cell-based; settings: Pseudomonas aeruginosa, ATCC39324, Table 1, R79, read-out: MIC
[7] = system: strains of Klebsiella pneumoniae displaying MDR phenotypes; assay: MIC-assay, Mueller-Hinton broth with G-block alginate, 384-well, OD600 (Table 10); type: cell-based; settings: read-out: MIC
Excerpt: Minimum inhibitory concentration (MICs) of different antibiotics for strains of Klebsiella pneumoniae displaying MDR phenotypes in the presence of varying concentrations of OligoCF-5/20 (0-10%). (MIC values are expressed in μg ml^−1).

[8] = system: Staphylococcus aureus (MRSA) U50; assay: MIC-assay, Mueller-Hinton broth with G-block alginate, 384-well, OD600 (Table 12); type: cell-based; settings: MRSA 1040s, U50 MDR, read-out: MIC
Excerpt: (§1) Minimum inhibitory concentration (MICs) of different antibiotics for strains of Streptococcus oralis and Staphylococcus aureus (MRSA) displaying MDR phenotypes in the presence of varying concentrations of OligoCF-5/20 (0-10%). (MIC values are expressed in μg ml^−1).

[9] = system: Streptococcus oralis; assay: as above; type: cell-based; settings: Streptococcus oralis (5610, V17) MDR, read-out: MIC
Excerpt: as §1

[10] = system: strains of E. coli displaying MDR phenotypes; assay: MIC-assay, Mueller-Hinton broth with G-block alginate, 384-well, OD600 (Table 11); type: cell-based; settings: Escherichia coli, Escherichia coli (5702, Wales, V11) MDR, read-out: MIC
Excerpt: (§2) Minimum inhibitory concentration (MICs) of different antibiotics for strains of E. coli and Providencia stuartii displaying MDR phenotypes in the presence of varying concentrations of OligoCF-5/20 (0-10%). (MIC values are expressed in μg ml^−1).

[11] = system: MDR Providencia stuartii; assay: as above; type: cell-based; settings: Providencia stuartii (IR57 India, V7) MDR
Excerpt: as §2

[12] = system: Acinetobacter baumannii (MDR ACB, Libya, V4); assay: MIC-assay, Mueller-Hinton broth with G-block alginate, 384-well, OD600
[13] = system: Burkholderia cepacia (LMG18941, ATCC-BAA-246); assay: as above
[14] = system: V12 5725 (Wales) Klebsiella pneumoniae; assay: MIC assay, CAMHB with alginate oligomer, no visible growth; type: cell-based; settings: Table 5, V12 MDR Kleb pneu
[15] = Table 8, G-block (OligoCF-5/20) 0%
[16] = Table 8, G-block (OligoCF-5/20) 2%
[17] = Table 8, G-block (OligoCF-5/20) 6%
[18] = Table 8, G-block (OligoCF-5/20) 10%

Question: With `CN(C)[C@@H]1C(O)=C(C(N)=O)C(=O)[C@@]2(O)C(O)=C3C(=O)c4c(O)cccc4[C@@](C)(O)[C@H]3[C@H](O)[C@@H]12` [Oxytetracycline] as the compound, how does the MIC [1, 15] read?
Answer: The MIC was over 128 µg/mL.

Question: And the MIC [1, 16]?
Answer: Its MIC is over 128 µg/mL.

Question: What about the MIC [1, 17] of the same compound?
Answer: The MIC was over 128 µg/mL.

Question: And the MIC [1, 18]?
Answer: Its MIC is over 128 µg/mL.

Question: And the MIC [2, 15]?
Answer: The MIC was 128 µg/mL (≈ 278 µM).

Question: What about the MIC [2, 16] of the same compound?
Answer: Its MIC is 128 µg/mL (≈ 278 µM).

Question: And the MIC [2, 17]?
Answer: The MIC was 64 µg/mL (≈ 139 µM).

Question: What about the MIC [2, 18] of the same compound?
Answer: Its MIC is 64 µg/mL (≈ 139 µM).

Question: What about the MIC ([3]; OligoCF-5/20 0G) of the same compound?
Answer: Its MIC is 8 µg/mL (≈ 17.4 µM).

Question: And the MIC ([3]; OligoCF-5/20 +2% G)?
Answer: The MIC was 8 µg/mL (≈ 17.4 µM).

Question: And the MIC ([3]; OligoCF-5/20 +6% G)?
Answer: Its MIC is 4 µg/mL (≈ 8.69 µM).

Question: And the MIC ([3]; OligoCF-5/20 +10% G)?
Answer: The MIC was 4 µg/mL (≈ 8.69 µM).

Question: What about the MIC ([4]; Acinetobacter, OligoCF-5/20 0G, read-out: MIC) of the same compound?
Answer: The MIC was 2 µg/mL (≈ 4.34 µM).

Question: What about the MIC ([4]; OligoCF-5/20 +2% G) of the same compound?
Answer: Its MIC is 2 µg/mL (≈ 4.34 µM).

Question: And the MIC ([4]; OligoCF-5/20 +6% G)?
Answer: The MIC was 2 µg/mL (≈ 4.34 µM).

Question: What about the MIC ([4]; OligoCF-5/20 +10% G) of the same compound?
Answer: Its MIC is 8^‡ μg/ml.

Question: And the MIC ([5]; Acinetobacter baumannii, OligoCF-5/20 0G, read-out: MIC)?
Answer: The MIC was 2 µg/mL (≈ 4.34 µM).

Question: And the MIC ([5]; OligoCF-5/20 +2% G)?
Answer: Its MIC is 2 µg/mL (≈ 4.34 µM).

Question: And the MIC ([5]; OligoCF-5/20 +6% G)?
Answer: The MIC was 1^† μg/ml.

Question: And the MIC ([5]; OligoCF-5/20 +10% G)?
Answer: Its MIC is 4^‡ μg/ml.

Question: And the MIC ([6]; OligoCF-5/20 0G)?
Answer: Its MIC is 8 µg/mL (≈ 17.4 µM).

Question: And the MIC ([6]; OligoCF-5/20 +2% G)?
Answer: The MIC was 4 µg/mL (≈ 8.69 µM).

Question: And the MIC ([6]; OligoCF-5/20 +6% G)?
Answer: The MIC was 4 µg/mL (≈ 8.69 µM).

Question: What about the MIC ([6]; OligoCF-5/20 +10% G) of the same compound?
Answer: The MIC was 2 µg/mL (≈ 4.34 µM).

Question: And the MIC ([7]; Klebsiella pneumoniae (5712, Wales, V12) MDR, G-block (OligoCF-5/20) 0%)?
Answer: The MIC was 1 µg/mL (≈ 2.17 µM).

Question: What about the MIC ([7]; Klebsiella pneumoniae (5712, Wales, V12) MDR, G-block (OligoCF-5/20) 2%) of the same compound?
Answer: The MIC was 1 µg/mL (≈ 2.17 µM).

Question: What about the MIC ([7]; Klebsiella pneumoniae (5712, Wales, V12) MDR, G-block (OligoCF-5/20) 6%) of the same compound?
Answer: The MIC was 1 µg/mL (≈ 2.17 µM).

Question: And the MIC ([7]; Klebsiella pneumoniae (5712, Wales, V12) MDR, G-block (OligoCF-5/20) 10%)?
Answer: Its MIC is 1 µg/mL (≈ 2.17 µM).

Question: And the MIC ([7]; Klebsiella pneumoniae (IR25, India, V6) MDR, G-block (OligoCF-5/20) 0%)?
Answer: The MIC was 2 µg/mL (≈ 4.34 µM).

Question: And the MIC ([7]; Klebsiella pneumoniae (IR25, India, V6) MDR, G-block (OligoCF-5/20) 2%)?
Answer: Its MIC is 2 µg/mL (≈ 4.34 µM).

Question: What about the MIC ([7]; Klebsiella pneumoniae (IR25, India, V6) MDR, G-block (OligoCF-5/20) 6%) of the same compound?
Answer: The MIC was 2 µg/mL (≈ 4.34 µM).

Question: And the MIC ([7]; Klebsiella pneumoniae (IR25, India, V6) MDR, G-block (OligoCF-5/20) 10%)?
Answer: The MIC was 2 µg/mL (≈ 4.34 µM).

Question: And the MIC ([7]; Klebsiella pneumoniae (K3, India, V8) MDR, G-block (OligoCF-5/20) 0%)?
Answer: Its MIC is 512 µg/mL (≈ 1110 µM).

Question: And the MIC ([7]; Klebsiella pneumoniae (K3, India, V8) MDR, G-block (OligoCF-5/20) 2%)?
Answer: Its MIC is 512 µg/mL (≈ 1110 µM).

Question: And the MIC ([7]; Klebsiella pneumoniae (K3, India, V8) MDR, G-block (OligoCF-5/20) 6%)?
Answer: The MIC was 512 µg/mL (≈ 1110 µM).

Question: What about the MIC ([7]; Klebsiella pneumoniae (K3, India, V8) MDR, G-block (OligoCF-5/20) 10%) of the same compound?
Answer: The MIC was 1020 µg/mL (≈ 2220 µM).

Question: And the MIC ([8]; G-block (OligoCF-5/20) 0%)?
Answer: Its MIC is 2 µg/mL (≈ 4.34 µM).

Question: What about the MIC ([8]; G-block (OligoCF-5/20) 2%) of the same compound?
Answer: The MIC was 2 µg/mL (≈ 4.34 µM).

Question: What about the MIC ([8]; G-block (OligoCF-5/20) 6%) of the same compound?
Answer: Its MIC is 1 µg/mL (≈ 2.17 µM).

Question: And the MIC ([8]; G-block (OligoCF-5/20) 10%)?
Answer: Its MIC is 0.5 µg/mL (≈ 1.09 µM).

Question: And the MIC ([9]; G-block (OligoCF-5/20) 0%)?
Answer: The MIC was under 0.25 µg/mL.

Question: And the MIC ([9]; G-block (OligoCF-5/20) 2%)?
Answer: Its MIC is under 0.25 µg/mL.

Question: And the MIC ([9]; G-block (OligoCF-5/20) 6%)?
Answer: Its MIC is 0.5 µg/mL (≈ 1.09 µM).

Question: What about the MIC ([9]; G-block (OligoCF-5/20) 10%) of the same compound?
Answer: The MIC was under 0.25 µg/mL.

Question: What about the MIC ([10]; G-block (OligoCF-5/20) 0%) of the same compound?
Answer: Its MIC is 0.5 µg/mL (≈ 1.09 µM).

Question: What about the MIC ([10]; G-block (OligoCF-5/20) 2%) of the same compound?
Answer: The MIC was 0.5 µg/mL (≈ 1.09 µM).

Question: And the MIC ([10]; G-block (OligoCF-5/20) 6%)?
Answer: The MIC was 0.5 µg/mL (≈ 1.09 µM).

Question: What about the MIC ([10]; G-block (OligoCF-5/20) 10%) of the same compound?
Answer: Its MIC is 0.25 µg/mL (≈ 0.543 µM).

Question: What about the MIC ([11]; G-block (OligoCF-5/20) 0%) of the same compound?
Answer: The MIC was 128 µg/mL (≈ 278 µM).

Question: And the MIC ([11]; G-block (OligoCF-5/20) 2%)?
Answer: The MIC was 128 µg/mL (≈ 278 µM).

Question: And the MIC ([11]; G-block (OligoCF-5/20) 6%)?
Answer: The MIC was 128 µg/mL (≈ 278 µM).

Question: And the MIC ([11]; G-block (OligoCF-5/20) 10%)?
Answer: The MIC was 128 µg/mL (≈ 278 µM).

Question: And the MIC ([12]; Table 9, G-block (OligoCF-5/20) 0%)?
Answer: Its MIC is 2 µg/mL (≈ 4.34 µM).

Question: And the MIC ([12]; Table 9, G-block (OligoCF-5/20) 2%)?
Answer: Its MIC is 2 µg/mL (≈ 4.34 µM).

Question: What about the MIC ([12]; Table 9, G-block (OligoCF-5/20) 6%) of the same compound?
Answer: The MIC was 2 µg/mL (≈ 4.34 µM).

Question: What about the MIC ([12]; Table 9, G-block (OligoCF-5/20) 10%) of the same compound?
Answer: Its MIC is 1 µg/mL (≈ 2.17 µM).

Question: What about the MIC ([13]; ATCCBAA246|LMG18941, Table 8, G-block (OligoCF-5/20) 0%) of the same compound?
Answer: Its MIC is 32 µg/mL (≈ 69.5 µM).

Question: What about the MIC ([13]; ATCCBAA246|LMG18941, Table 8, G-block (OligoCF-5/20) 2%) of the same compound?
Answer: Its MIC is 16 µg/mL (≈ 34.7 µM).

Question: And the MIC ([13]; ATCCBAA246|LMG18941, Table 8, G-block (OligoCF-5/20) 6%)?
Answer: The MIC was 32 µg/mL (≈ 69.5 µM).

Question: And the MIC ([13]; ATCCBAA246|LMG18941, Table 8, G-block (OligoCF-5/20) 10%)?
Answer: Its MIC is 32 µg/mL (≈ 69.5 µM).

Question: And the MIC ([14]; Klebsiella pneumoniae, OligoCF-5/20 0G, read-out: MIC)?
Answer: Its MIC is 1 µg/mL (≈ 2.17 µM).

Question: What about the MIC ([14]; OligoCF-5/20 +2% G) of the same compound?
Answer: The MIC was 1 µg/mL (≈ 2.17 µM).

Question: What about the MIC ([14]; OligoCF-5/20 +6% G) of the same compound?
Answer: The MIC was 1 µg/mL (≈ 2.17 µM).

Question: And the MIC ([14]; OligoCF-5/20 +10% G)?
Answer: Its MIC is 1 µg/mL (≈ 2.17 µM).
